# From the supplement of paper PMC10307832
# What was measured:
# Assay in all cases: relative viability (nuclei count vs DMSO), 5 days (fraction); higher = more cells survive
# NCI-H1650 = test system: NCI-H1650
# Procedure, shortened: (§1)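 Dosing by pin tool came one day after lung cancer cell lines were seeded in 1536-well plates, using either one drug or a fixed anchor-drug dose plus five library-drug doses (not always all listed) in √10 steps. After 5 days, nuclei were counted on 4× images. Relative viability is treated-well nuclei count divided by vehicle-well nuclei count, and values are medians of duplicate plates.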
# HCC-44 = test system: HCC-44
# Procedure, shortened: as §1
# NCI-H460 = test system: NCI-H460
# Procedure, shortened: as §1
# LU99A = test system: LU99A
# Procedure, shortened: as §1
# LCLC-97TM1 = test system: LCLC-97TM1
# Procedure, shortened: as §1
# 201T = test system: 201T
# Procedure, shortened: as §1
# COR-L23 = test system: COR-L23
# Procedure, shortened: as §1
# SW 1573 = test system: SW 1573
# Procedure, shortened: as §1
# NCI-H727 = test system: NCI-H727
# Procedure, shortened: as §1
# H3255 = test system: H3255
# Procedure, shortened: as §1
# NCI-H596 = test system: NCI-H596
# Procedure, shortened: as §1
# LC-2-ad = test system: LC-2-ad
# Procedure, shortened: as §1
# LCLC-103H = test system: LCLC-103H
# Procedure, shortened: as §1
# NCI-H1563 = test system: NCI-H1563
# Procedure, shortened: as §1
# A-427 = test system: A-427
# Procedure, shortened: as §1
# NCI-H23 = test system: NCI-H23
# Procedure, shortened: as §1
# NCI-H2347 = test system: NCI-H2347
# Procedure, shortened: as §1
# PC-14 = test system: PC-14
# Procedure, shortened: as §1
# NCI-H2228 = test system: NCI-H2228
# Procedure, shortened: as §1
smiles,measurement,setting,value
CC(=O)O[C@@]12CO[C@@H]1C[C@H](O)[C@@]1(C)C(=O)[C@H](O)C3=C(C)[C@@H](OC(=O)[C@H](O)[C@@H](NC(=O)OC(C)(C)C)c4ccccc4)C[C@@](O)([C@@H](OC(=O)c4ccccc4)[C@H]21)C3(C)C [Docetaxel] + CC(C)C[C@H](NC(=O)[C@H](Cc1ccccc1)NC(=O)c1cnccn1)B(O)O [Bortezomib] (partner 0.002 µM),relative viability,NCI-H1650; first compound 0.0002 µM,0.2
same,relative viability,NCI-H1650; first compound 0.000632 µM,0.196
same,relative viability,NCI-H1650; first compound 0.002 µM,0.204
same,relative viability,NCI-H1650; first compound 0.006325 µM,0.181
same,relative viability,NCI-H1650; first compound 0.02 µM,0.201
same,relative viability,HCC-44; first compound 0.0002 µM,0.904
same,relative viability,HCC-44; first compound 0.000632 µM,0.905
same,relative viability,HCC-44; first compound 0.002 µM,0.57
same,relative viability,HCC-44; first compound 0.006325 µM,0.151
same,relative viability,HCC-44; first compound 0.02 µM,0.149
same,relative viability,NCI-H460; first compound 0.0002 µM,0.959
same,relative viability,NCI-H460; first compound 0.000632 µM,0.735
same,relative viability,NCI-H460; first compound 0.002 µM,0.0916
same,relative viability,NCI-H460; first compound 0.006325 µM,0.0162
same,relative viability,NCI-H460; first compound 0.02 µM,0.0121
same,relative viability,LU99A; first compound 0.0002 µM,1.01
same,relative viability,LU99A; first compound 0.000632 µM,0.637
same,relative viability,LU99A; first compound 0.002 µM,0.545
same,relative viability,LU99A; first compound 0.006325 µM,0.282
same,relative viability,LU99A; first compound 0.02 µM,0.221
same,relative viability,LCLC-97TM1; first compound 0.0002 µM,0.624
same,relative viability,LCLC-97TM1; first compound 0.000632 µM,0.125
same,relative viability,LCLC-97TM1; first compound 0.002 µM,0.106
same,relative viability,LCLC-97TM1; first compound 0.006325 µM,0.083
same,relative viability,LCLC-97TM1; first compound 0.02 µM,0.051
same,relative viability,201T; first compound 0.0002 µM,1.07
same,relative viability,201T; first compound 0.000632 µM,1.1
same,relative viability,201T; first compound 0.002 µM,1.03
same,relative viability,201T; first compound 0.006325 µM,0.624
same,relative viability,201T; first compound 0.02 µM,0.425
same,relative viability,COR-L23; first compound 0.0002 µM,0.885
same,relative viability,COR-L23; first compound 0.000632 µM,0.915
same,relative viability,COR-L23; first compound 0.002 µM,0.844
same,relative viability,COR-L23; first compound 0.02 µM,0.116
same,relative viability,SW 1573; first compound 0.0002 µM,1.05
same,relative viability,SW 1573; first compound 0.000632 µM,0.364
same,relative viability,SW 1573; first compound 0.002 µM,0.265
same,relative viability,SW 1573; first compound 0.006325 µM,0.195
same,relative viability,SW 1573; first compound 0.02 µM,0.201
same,relative viability,NCI-H727; first compound 0.0002 µM,0.795
same,relative viability,NCI-H727; first compound 0.000632 µM,0.855
same,relative viability,NCI-H727; first compound 0.002 µM,0.474
same,relative viability,NCI-H727; first compound 0.006325 µM,0.473
same,relative viability,NCI-H727; first compound 0.02 µM,0.483
same,relative viability,H3255; first compound 0.0002 µM,0.864
same,relative viability,H3255; first compound 0.000632 µM,0.497
same,relative viability,H3255; first compound 0.002 µM,0.489
same,relative viability,H3255; first compound 0.006325 µM,0.284
same,relative viability,H3255; first compound 0.02 µM,0.272
same,relative viability,NCI-H596; first compound 0.0002 µM,0.81
same,relative viability,NCI-H596; first compound 0.000632 µM,1.15
same,relative viability,NCI-H596; first compound 0.002 µM,0.812
same,relative viability,NCI-H596; first compound 0.006325 µM,0.723
same,relative viability,NCI-H596; first compound 0.02 µM,0.423
same,relative viability,LC-2-ad; first compound 0.0002 µM,0.702
same,relative viability,LC-2-ad; first compound 0.002 µM,0.125
same,relative viability,LC-2-ad; first compound 0.006325 µM,0.116
same,relative viability,LC-2-ad; first compound 0.02 µM,0.11
same,relative viability,LCLC-103H; first compound 0.0002 µM,1.15
same,relative viability,LCLC-103H; first compound 0.000632 µM,1.12
same,relative viability,LCLC-103H; first compound 0.002 µM,0.714
same,relative viability,LCLC-103H; first compound 0.006325 µM,0.589
same,relative viability,LCLC-103H; first compound 0.02 µM,0.402
same,relative viability,NCI-H1563; first compound 0.0002 µM,0.912
same,relative viability,NCI-H1563; first compound 0.000632 µM,1.02
same,relative viability,NCI-H1563; first compound 0.002 µM,0.989
same,relative viability,NCI-H1563; first compound 0.006325 µM,0.741
same,relative viability,NCI-H1563; first compound 0.02 µM,0.582
same,relative viability,A-427; first compound 0.0002 µM,0.949
same,relative viability,A-427; first compound 0.000632 µM,0.964
same,relative viability,A-427; first compound 0.002 µM,0.656
same,relative viability,A-427; first compound 0.006325 µM,0.275
same,relative viability,A-427; first compound 0.02 µM,0.141
same,relative viability,NCI-H23; first compound 0.0002 µM,1.08
same,relative viability,NCI-H23; first compound 0.000632 µM,0.574
same,relative viability,NCI-H23; first compound 0.002 µM,0.399
same,relative viability,NCI-H23; first compound 0.006325 µM,0.169
same,relative viability,NCI-H23; first compound 0.02 µM,0.104
same,relative viability,NCI-H2347; first compound 0.0002 µM,0.805
same,relative viability,NCI-H2347; first compound 0.000632 µM,0.832
same,relative viability,NCI-H2347; first compound 0.002 µM,0.326
same,relative viability,NCI-H2347; first compound 0.006325 µM,0.497
same,relative viability,NCI-H2347; first compound 0.02 µM,0.575
same,relative viability,PC-14; first compound 0.0002 µM,0.826
same,relative viability,PC-14; first compound 0.000632 µM,0.803
same,relative viability,PC-14; first compound 0.002 µM,0.132
same,relative viability,PC-14; first compound 0.006325 µM,0.103
same,relative viability,PC-14; first compound 0.02 µM,0.0579
same,relative viability,NCI-H2228; first compound 0.0002 µM,0.617
same,relative viability,NCI-H2228; first compound 0.000632 µM,0.212
same,relative viability,NCI-H2228; first compound 0.002 µM,0.149
same,relative viability,NCI-H2228; first compound 0.006325 µM,0.243
same,relative viability,NCI-H2228; first compound 0.02 µM,0.152
